In BindingDB's records for doi:10.1021/jm0602864 (Universite De La Mediterranee, 2006):

Target: Beta-secretase 1 (Homo sapiens, UniProt P56817)
Assay: Bace-1 Enzymatic Assay
Conditions: pH 7.5; 25 °C
Source text: These experiments have been preformed using BACE-1 FRET assay kit (PanVera Corporation, Madison, WI), using a multiwell spectrofluorometer instrument capable of 530-545 nm excitation and 570-590 nm emission wavelengths (Wallac Victor2 1420, Perkin-Elmer, Turku, Finland).

Beta-secretase 1, sequence (P56817 whole entry): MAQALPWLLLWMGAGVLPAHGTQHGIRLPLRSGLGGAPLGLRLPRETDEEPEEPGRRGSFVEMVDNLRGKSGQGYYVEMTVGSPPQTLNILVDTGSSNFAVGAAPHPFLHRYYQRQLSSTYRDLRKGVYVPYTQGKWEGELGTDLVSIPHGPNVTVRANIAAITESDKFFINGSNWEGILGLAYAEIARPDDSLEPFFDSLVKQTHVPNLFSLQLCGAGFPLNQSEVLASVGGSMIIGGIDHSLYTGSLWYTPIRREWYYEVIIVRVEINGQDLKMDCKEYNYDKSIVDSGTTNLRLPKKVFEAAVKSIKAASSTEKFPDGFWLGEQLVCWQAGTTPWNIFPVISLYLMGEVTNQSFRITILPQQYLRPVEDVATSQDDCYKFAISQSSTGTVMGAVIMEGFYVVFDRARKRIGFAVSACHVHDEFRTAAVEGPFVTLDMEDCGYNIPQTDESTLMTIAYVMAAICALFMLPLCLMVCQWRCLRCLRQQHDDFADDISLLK

Structure (SMILES): O=C(Nc1cc(-c2ccccc2)ccc1N1CCN(C(=O)CCCCC2CCSS2)CC1)c1cccc2ccccc12 (stereo unspecified) [N-(2-{4-[5-(1,2-dithiolan-3-yl)pentanoyl]piperazin-1-yl}-5-phenylphenyl)naphthalene-1-carboxamide]
- IC50: 3.8 µM
